Data from patent US9980972B2, “Rho kinase inhibitors for use in treating familial amyotrophic lateral sclerosis” (GEORG-AUGUST-UNIVERSITÄT GÖTTINGEN STIFTUNG ÖFFENTLICHEN …, priority 2012, dated 2018).

Legend:
[1] = system: SOD1 G93A mouse model of ALS; assay: Disease onset by neurological score in SOD1 G93A mice; type: in vivo; settings: treated from d50 or from d80, differentiated by gender
Experimental: Neurological Score. Neurological scores were assessed every three days for each mouse from 50 days of age. The neurological score employed a scale of 0 to 4 that had been developed in ALS mouse trials before. Score criteria used to assign each score level were: • 4 Full extension of hind legs away from lateral midline when mouse is suspended by its tail, and mouse can hold this for 2 seconds, suspended 2-3 times. • 3 Collapse or partial collapse of leg extension towards lateral midline (weakness) or trembling of hind legs during tail suspension. • 2 Toes curl under at least twice during walking of 10 cm, or any part of foot is dragging along cage bottom/table. • 1 Rigid paralysis or minimal joint movement, foot not being used for forward motion*. * If score criterion 2 is reached, food pellets are left on bedding and water is additionally placed in a well on the bedding. • 0 Mouse cannot right itself within 30 seconds from either side.
Onset of disease is defined as reaching neurological score 3 (collapse or partial collapse of leg extension towards lateral midline (weakness) or trembling of hind legs during tail suspension).

[2] = system: spinal cord astroglia of SOD1 G93A mice; assay: GFAP positive astrocytes in ventral horn of lumbar spinal cord (astrogliosis); type: in vivo, mouse; settings: for numbers of GFAP positive astroglia: time of death, presymptomatic
Experimental: After deep anaesthesia, mice were transcardially perfused with PBS solution followed by 4% paraformaldehyde. Spinal cords, sciatic nerves and gastrocnemius muscles were removed. Spinal cords and gastrocnemius muscles were then postfixed for 2 h in 4% paraformaldehyde. Thereafter, the tissue was dehydrated in 30% sucrose overnight and kept at −20° C. until further processing. Coronal sections of the lumbar spinal cord (L3-L6) (20 μm) and horizontal sections of the tibial muscle (35 μm) were prepared using a Leica Kryostat and collected on gelatine-coated glass slides.
Spinal cord sections selected for immunohistochemical processing were first rehydrated. Then antigen-retrieval was performed for 4 h in TBS at 60° C. for later GFAP or Iba1 labeling and for 30 min in sodium citrate (pH 9.0) at 80° C. for later ChAT labeling. After washing for one time in PBS the sections were incubated at room temperature either in PBS and 10% of normal goat serum for later GFAP labeling or in PBS and 5% normal donkey serum for later ChAT labeling to block unspecific binding. The primary antibodies (anti-ChAT 1:100, AB144 P, Millipore; anti-GFAP 1:200, DAKO; anti-Iba1 1:500, WAKO, Osaka, Japan) were applied at 4° C. for one night for GFAP and for three nights for ChAT. The secondary antibodies (Cy3 anti-goat or Cy2/Dylight anti rabbit; both Dianova) were applied on separate sections 1:300 for 1 h at room temperature. Then a nuclear counter-stain with DAPI (4,6-diamidino-2-phenylindole) (Sigma-Aldrich) was performed before mounting in Moviol (Hoechst, Frankfurt, Germany).
Astrogliosis and microgliosis were evaluated by the quantification of GFAP or Iba1 positive cells in the ventral horn of lumbar spinal cord sections, respectively. Again, the area of the ventral horn was defined and GFAP or Iba1 positive cells were manually counted. In the d50 treatment group analyzed at death, a total of 20 mice was counted from the vehicle (3 male, 3 female), Fas30 (3 male, 3 female), Fas100 (3 male, 3 female) and wildtype (1 male, 1 female) group. In the d50 treatment group analyzed at d100, a total of 20 mice was counted from the vehicle (3 male, 3 female), Fas30 (3 male, 3 female), Fas100 (3 male, 3 female) and wildtype (1 male, 1 female) group.
Reactive astrogliosis represents another parameter in the evaluation of histologic manifestation of ALS disease. In human ALS patients, the clinical progression of this neurodegenerative disease seems to be associated with changes in astrocytic cell infiltration in the spinal cord. Therefore, the inventors evaluated the extent of astrogliosis in the lumbar spinal cord by counting the number of GFAP positive astroglial cells in the ventral horn and normalized values to area (FIG. 12).

[3] = system: neuromuscular junctions of SOD1 G93A mice; assay: NMJ integrity of gastrocnemius muscle; type: in vivo, mouse; settings: Fasudil vs control treated animals
[4] = system: primary microglia; assay: Microglial viability, WST-1 metabolic activity; type: cell-based, mouse; settings: up to 50 μM Fasudil
Experimental: Microglial viability was assayed as metabolic activity using WST-1 reagent (4-[3-(4-iodophenyl)-2-(4-nitrophenyl)-2H-5-tetrazolio]-1,3-benzene disulfonate), based on the enzymatic cleavage of WST tetrazolium salt to formazan by the succinate-tetrazolium reductase system of the respiratory chain of intact mitochondria. The assay was performed according to the instructions of the manufacturer (Roche Applied Science, Mannheim, Germany). After 3 h of incubation, the resulting color reaction was measured at 450 nm (with 655 nm as the reference wavelength) in a microplate reader (Bio-Rad, Munich, Germany).

O=S(=O)(c1cccc2cnccc12)N1CCCNCC1 [Fasudil, 1-(5-isoquinolinesulfonyl)homopiperazine]
onset of disease (neurological score 3) [1]: no statistically significant difference
GFAP cell number ([2]; day 100, female, presymptomatic Fas30 vs transgenic vehicle): significantly reduced
numbers of GFAP positive astroglia ([2]; Fas30 female, vehicle female 28.91±4.7): 31.6±5.9 per 0.2 mm^2
numbers of GFAP positive astroglia ([2]; Fas30 male, vehicle male 31.3±4.7): 38.2±4.4 per 0.2 mm^2
numbers of GFAP positive astroglia ([2]; Fas100 female, vehicle female 28.91±4.7): 27.9±4.0 per 0.2 mm^2
numbers of GFAP positive astroglia ([2]; Fas100 male, vehicle male 31.3±4.7): 29.24±4.5 per 0.2 mm^2
sciatic nerve axonal pathology and NMJ integrity of gastrocnemius muscle [3]: no significant differences
microglial metabolic activity (WST-1) [4]: no reduction in metabolic activity
